Values after ≈ are worked out from the molar mass of the structure shown. Values joined by “and” are separate entries in the source; they are usually repeats but may differ in a detail not shown here. Equal entries are not always repeated.
tested on: Escherichia coli; experiment: Broth microdilution MIC, Example 7 (NCL812 and analogues); assay type: cell-based; details: E. coli, 24 hours

SMILES	MIC (μg/ml) at 24 hours, E. coli [µg/mL]
Nc1nc(N/N=C/c2cccc(O)c2)nc(N/N=C/c2cccc(O)c2)n1 [NCL209]	>128
Nc1nc(N/N=C/c2ccc(C(F)(F)F)cc2)nc(N/N=C/c2ccc(C(F)(F)F)cc2)n1 [NCL210]	>128
Nc1nc(N/N=C/c2ccc(O)cc2)nc(N/N=C/c2ccc(O)cc2)n1 [NCL211]	>128
Nc1nc(N/N=C/c2ccc(Br)cc2)nc(N/N=C/c2ccc(Br)cc2)n1 [NCL212]	>128
Nc1nc(N/N=C/C2CCCCC2)nc(N/N=C/C2CCCCC2)n1 [NCL213]	>128
Nc1nc(N/N=C/c2ccccc2)nc(N/N=C/c2ccccc2)n1 [NCL214]	>128

same assay, conditions: Escherichia coli, read-out: MIC (μg/ml) at 24 hours E. coli; E. coli, 24 hours

SMILES	MIC [µg/mL]
Nc1nc(N/N=C/c2ccccc2)cc(N/N=C/c2ccccc2)n1 [NCL199]	> 128
C/C(=N\Nc1cc(N/N=C(\C)c2ccc(Cl)cc2)nc(N)n1)c1ccc(Cl)cc1 [NCL204]	> 128

tested on: MRSA; experiment: as above; assay type: cell-based, Staphylococcus aureus; details: MIC testing, two MRSA strains
In short: (§1)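 Values are MICs in μg/ml from broth microdilution per CLSI, with growth scored against a drug-free well.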

SMILES	activity against MRSA among analogues
Nc1nc(N/N=C/c2ccccc2)cc(N/N=C/c2ccccc2)n1 [NCL199]	greatest activity
C/C(=N\Nc1cc(N/N=C(\C)c2ccc(Cl)cc2)nc(N)n1)c1ccc(Cl)cc1 [NCL204]	greatest activity

same assay, conditions: MRSA 1, 24 hours

SMILES	MIC (μg/ml) at 24 hours, MRSA 1 [µg/mL]
Nc1nc(N/N=C/c2ccccc2)cc(N/N=C/c2ccccc2)n1 [NCL199]	4 (≈ 12.1 µM)
C/C(=N\Nc1cc(N/N=C(\C)c2ccc(Cl)cc2)nc(N)n1)c1ccc(Cl)cc1 [NCL204]	8 (≈ 18.7 µM)
Nc1nc(N/N=C/c2cccc(O)c2)nc(N/N=C/c2cccc(O)c2)n1 [NCL209]	>128
Nc1nc(N/N=C/c2ccc(C(F)(F)F)cc2)nc(N/N=C/c2ccc(C(F)(F)F)cc2)n1 [NCL210]	>128
Nc1nc(N/N=C/c2ccc(O)cc2)nc(N/N=C/c2ccc(O)cc2)n1 [NCL211]	>128
Nc1nc(N/N=C/c2ccc(Br)cc2)nc(N/N=C/c2ccc(Br)cc2)n1 [NCL212]	>128
Nc1nc(N/N=C/C2CCCCC2)nc(N/N=C/C2CCCCC2)n1 [NCL213]	>128
Nc1nc(N/N=C/c2ccccc2)nc(N/N=C/c2ccccc2)n1 [NCL214]	>128

same assay, conditions: MRSA 2, 24 hours

SMILES	MIC (μg/ml) at 24 hours, MRSA 2
C/C(=N\Nc1cc(N/N=C(\C)c2ccc(Cl)cc2)nc(N)n1)c1ccc(Cl)cc1 [NCL204]	8 µg/mL (≈ 18.7 µM)
Nc1nc(N/N=C/c2cccc(O)c2)nc(N/N=C/c2cccc(O)c2)n1 [NCL209]	>128 µg/mL
Nc1nc(N/N=C/c2ccc(C(F)(F)F)cc2)nc(N/N=C/c2ccc(C(F)(F)F)cc2)n1 [NCL210]	>128 µg/mL
Nc1nc(N/N=C/c2ccc(O)cc2)nc(N/N=C/c2ccc(O)cc2)n1 [NCL211]	>128 µg/mL
Nc1nc(N/N=C/c2ccc(Br)cc2)nc(N/N=C/c2ccc(Br)cc2)n1 [NCL212]	>128 µg/mL and 128 µg/mL
Nc1nc(N/N=C/C2CCCCC2)nc(N/N=C/C2CCCCC2)n1 [NCL213]	>128 µg/mL
Nc1nc(N/N=C/c2ccccc2)nc(N/N=C/c2ccccc2)n1 [NCL214]	>128 µg/mL

same assay, conditions: Staphylococcus aureus, MRSA, 24 h, read-out: MIC (μg/ml) at 24 hours MRSA 1, MRSA 1, 24 hours

SMILES	MIC [µg/mL]
Nc1nc(N/N=C/c2ccccc2)cc(N/N=C/c2ccccc2)n1 [NCL199]	2 (≈ 6.04 µM)
C/C(=N\Nc1cc(N/N=C(\C)c2ccc(Cl)cc2)nc(N)n1)c1ccc(Cl)cc1 [NCL204]	4 (≈ 9.34 µM)

same assay, conditions: Staphylococcus aureus, MRSA, 24 h, read-out: MIC (μg/ml) at 24 hours MRSA 2, MRSA 2, 24 hours

SMILES	MIC [µg/mL]
Nc1nc(N/N=C/c2ccccc2)cc(N/N=C/c2ccccc2)n1 [NCL199]	4 (≈ 12.1 µM)
C/C(=N\Nc1cc(N/N=C(\C)c2ccc(Cl)cc2)nc(N)n1)c1ccc(Cl)cc1 [NCL204]	4 (≈ 9.34 µM)

same assay, conditions: Staphylococcus aureus, MRSA, bioassay ranking, MRSA; read-out: MRSA

SMILES	MIC [µg/mL]
Nc1nc(N/N=C/c2ccccc2)cc(N/N=C/c2ccccc2)n1 [NCL199]	3.5 (≈ 10.6 µM)
C/C(=N\Nc1cc(N/N=C(\C)c2ccc(Cl)cc2)nc(N)n1)c1ccc(Cl)cc1 [NCL204]	6 (≈ 14 µM)

tested on: VRE; experiment: as above; assay type: cell-based, Enterococcus spp.; details: Enterococcus, VRE, 24 h, read-out: MIC (μg/ml) at 24 hours VRE 1, VRE 1, 24 hours
In short: as §1

SMILES	MIC [µg/mL]
Nc1nc(N/N=C/c2ccccc2)cc(N/N=C/c2ccccc2)n1 [NCL199]	> 128
C/C(=N\Nc1cc(N/N=C(\C)c2ccc(Cl)cc2)nc(N)n1)c1ccc(Cl)cc1 [NCL204]	64 (≈ 149 µM)

same assay, conditions: Enterococcus, VRE, 24 h, read-out: MIC (μg/ml) at 24 hours VRE 2, VRE 2, 24 hours

SMILES	MIC [µg/mL]
Nc1nc(N/N=C/c2ccccc2)cc(N/N=C/c2ccccc2)n1 [NCL199]	> 128
C/C(=N\Nc1cc(N/N=C(\C)c2ccc(Cl)cc2)nc(N)n1)c1ccc(Cl)cc1 [NCL204]	> 128

same assay, conditions: MIC testing, two VRE strains

SMILES	activity against VRE among analogues
C/C(=N\Nc1cc(N/N=C(\C)c2ccc(Cl)cc2)nc(N)n1)c1ccc(Cl)cc1 [NCL204]	greatest activity
Nc1nc(N/N=C/c2ccc(C(F)(F)F)cc2)nc(N/N=C/c2ccc(C(F)(F)F)cc2)n1 [NCL210]	greatest activity
Nc1nc(N/N=C/c2ccc(Br)cc2)nc(N/N=C/c2ccc(Br)cc2)n1 [NCL212]	greatest activity

same assay, conditions: VRE 1, 24 hours

SMILES	MIC (μg/ml) at 24 hours, VRE 1 [µg/mL]
Nc1nc(N/N=C/c2cccc(O)c2)nc(N/N=C/c2cccc(O)c2)n1 [NCL209]	>128
Nc1nc(N/N=C/c2ccc(C(F)(F)F)cc2)nc(N/N=C/c2ccc(C(F)(F)F)cc2)n1 [NCL210]	128 (≈ 273 µM)
Nc1nc(N/N=C/c2ccc(O)cc2)nc(N/N=C/c2ccc(O)cc2)n1 [NCL211]	>128
Nc1nc(N/N=C/c2ccc(Br)cc2)nc(N/N=C/c2ccc(Br)cc2)n1 [NCL212]	32 (≈ 65.3 µM)
Nc1nc(N/N=C/C2CCCCC2)nc(N/N=C/C2CCCCC2)n1 [NCL213]	>128
Nc1nc(N/N=C/c2ccccc2)nc(N/N=C/c2ccccc2)n1 [NCL214]	>128

same assay, conditions: VRE 2, 24 hours

SMILES	MIC (μg/ml) at 24 hours, VRE 2
Nc1nc(N/N=C/c2cccc(O)c2)nc(N/N=C/c2cccc(O)c2)n1 [NCL209]	>128 µg/mL
Nc1nc(N/N=C/c2ccc(C(F)(F)F)cc2)nc(N/N=C/c2ccc(C(F)(F)F)cc2)n1 [NCL210]	32 µg/mL and 64 µg/mL
Nc1nc(N/N=C/c2ccc(O)cc2)nc(N/N=C/c2ccc(O)cc2)n1 [NCL211]	>128 µg/mL
Nc1nc(N/N=C/c2ccc(Br)cc2)nc(N/N=C/c2ccc(Br)cc2)n1 [NCL212]	16 µg/mL (≈ 32.6 µM)
Nc1nc(N/N=C/C2CCCCC2)nc(N/N=C/C2CCCCC2)n1 [NCL213]	>128 µg/mL
Nc1nc(N/N=C/c2ccccc2)nc(N/N=C/c2ccccc2)n1 [NCL214]	>128 µg/mL

same assay, conditions: bioassay ranking, VRE

SMILES	VRE [µg/mL]
Nc1nc(N/N=C/c2ccc(Br)cc2)nc(N/N=C/c2ccc(Br)cc2)n1 [NCL212]	24

tested on: Pseudomonas aeruginosa; experiment: as above; assay type: cell-based; details: P. aeruginosa, 24 hours

SMILES	MIC (μg/ml) at 24 hours, P. aeruginosa [µg/mL]
Nc1nc(N/N=C/c2cccc(O)c2)nc(N/N=C/c2cccc(O)c2)n1 [NCL209]	>128
Nc1nc(N/N=C/c2ccc(C(F)(F)F)cc2)nc(N/N=C/c2ccc(C(F)(F)F)cc2)n1 [NCL210]	>128
Nc1nc(N/N=C/c2ccc(O)cc2)nc(N/N=C/c2ccc(O)cc2)n1 [NCL211]	>128
Nc1nc(N/N=C/c2ccc(Br)cc2)nc(N/N=C/c2ccc(Br)cc2)n1 [NCL212]	>128
Nc1nc(N/N=C/C2CCCCC2)nc(N/N=C/C2CCCCC2)n1 [NCL213]	>128
Nc1nc(N/N=C/c2ccccc2)nc(N/N=C/c2ccccc2)n1 [NCL214]	>128

same assay, conditions: Pseudomonas aeruginosa, 24 h, read-out: MIC (μg/ml) at 24 hours P. aeruginosa, P. aeruginosa, 24 hours

SMILES	MIC [µg/mL]
Nc1nc(N/N=C/c2ccccc2)cc(N/N=C/c2ccccc2)n1 [NCL199]	> 128
C/C(=N\Nc1cc(N/N=C(\C)c2ccc(Cl)cc2)nc(N)n1)c1ccc(Cl)cc1 [NCL204]	> 128

— patent US10253002B2, “Compounds and methods of treating infections” (Neoculi Pty Ltd., priority 2013, dated 2019)
